Assay results from paper PMC5218480 (PLoS ONE, 2017).

Tested on: MV-4-11 cells
Assay: Gene expression microarray analysis (Affymetrix PrimeView) and GSEA
Assay type: cell-based, human
Design: RFU PODN (11730768_x_at) / Fold change /veh PODN (11730768_x_at) / RFU LINC00158 (11744669_a_at) / Fold change /veh LINC00158 (11744669_a_at) / RFU DUSP10 (11751237_a_at) / Fold change /veh DUSP10 (11751237_a_at) / RFU ID3 (11757404_x_at) / Fold change /veh ID3 (11757404_x_at) / RFU PLEKHG5 (11737974_s_at) / Fold change /veh PLEKHG5 (11737974_s_at) / RFU LRRC4B (11730491_at) / Fold change /veh LRRC4B (11730491_at) / RFU GIMAP4 (11747438_a_at) / Fold change /veh GIMAP4 (11747438_a_at) / RFU KRT8 (11758183_x_at) / Fold change /veh KRT8 (11758183_x_at) / RFU CNN1 (11734310_a_at) / Fold change /veh CNN1 (11734310_a_at) / RFU VPS37D (11726825_at) / Fold change /veh VPS37D (11726825_at) / RFU C10orf10 (11716522_x_at) / Fold change /veh C10orf10 (11716522_x_at) / RFU KIR2DL2 /// KIR2DL4 /// KIR2DL5A /// KIR2DL5B /// KIR2DS1 /// KIR2DS2 /// KIR2DS3 /// KIR2DS4 /// KIR3DL3 /// KIR3DL3 /// KIR3DS1 (11738374_at) / Fold change /veh KIR2DL2 /// KIR2DL4 /// KIR2DL5A /// KIR2DL5B /// KIR2DS1 /// KIR2DS2 /// KIR2DS3 /// KIR2DS4 /// KIR3DL3 /// KIR3DL3 /// KIR3DS1 (11738374_at) / RFU C1QL1 (11718748_at) / Fold change /veh C1QL1 (11718748_at) / RFU TMPRSS4 (11747572_a_at) / Fold change /veh TMPRSS4 (11747572_a_at) / RFU HAMP (11756126_x_at) / Fold change /veh HAMP (11756126_x_at) / RFU RNFT2 (11725882_a_at) / Fold change /veh RNFT2 (11725882_a_at) / RFU NR4A2 (11747474_a_at) / Fold change /veh NR4A2 (11747474_a_at) / RFU ABCC12 (11746883_a_at) / Fold change /veh ABCC12 (11746883_a_at) / RFU TMEM136 (11760407_x_at) / Fold change /veh TMEM136 (11760407_x_at) / RFU CLDN22 /// WWC2 (11732394_at) / Fold change /veh CLDN22 /// WWC2 (11732394_at) / RFU HLA-DPB1 (11760878_x_at) / Fold change /veh HLA-DPB1 (11760878_x_at) / RFU SPINT1 (11716480_a_at) / Fold change /veh SPINT1 (11716480_a_at) / RFU GAP43 (11754022_s_at) / Fold change /veh GAP43 (11754022_s_at) / RFU A4GNT (11735810_at) / Fold change /veh A4GNT (11735810_at) / RFU PRB3 (11715151_x_at) / Fold change /veh PRB3 (11715151_x_at) / RFU TUBB4B (11761932_at) / Fold change /veh TUBB4B (11761932_at) / RFU CAPN14 (11732068_a_at) / Fold change /veh CAPN14 (11732068_a_at) / RFU TMCC2 (11721928_a_at) / Fold change /veh TMCC2 (11721928_a_at) / RFU IRGQ (11745062_a_at) / Fold change /veh IRGQ (11745062_a_at) / RFU FAM174B (11720279_a_at) / Fold change /veh FAM174B (11720279_a_at) / RFU TMPRSS4 (11748680_a_at) / Fold change /veh TMPRSS4 (11748680_a_at) / RFU FAM212B (11763350_a_at) / Fold change /veh FAM212B (11763350_a_at) / RFU PLEKHG5 (11743358_a_at) / Fold change /veh PLEKHG5 (11743358_a_at) / RFU ZSCAN30 (11745921_a_at) / Fold change /veh ZSCAN30 (11745921_a_at) / RFU CMKLR1 (11741424_a_at) / Fold change /veh CMKLR1 (11741424_a_at) / RFU LOC101060620 /// MAPK8IP1 (11723275_at) / Fold change /veh LOC101060620 /// MAPK8IP1 (11723275_at) / RFU SPTSSB (11747773_x_at) / Fold change /veh SPTSSB (11747773_x_at) / RFU PRSS12 (11739890_at) / Fold change /veh PRSS12 (11739890_at) / RFU BIN1 (11741810_x_at) / Fold change /veh BIN1 (11741810_x_at) / RFU WNT11 (11732464_a_at) / Fold change /veh WNT11 (11732464_a_at) / RFU C10orf10 (11716521_a_at) / Fold change /veh C10orf10 (11716521_a_at) / RFU C5orf56 (11738089_at) / Fold change /veh C5orf56 (11738089_at) / RFU CYB561 (11721691_x_at) / Fold change /veh CYB561 (11721691_x_at) / RFU ANKRD19P (11752326_a_at) / Fold change /veh ANKRD19P (11752326_a_at) / RFU OR2T12 /// OR2T33 /// OR2T8 (11738714_s_at) / Fold change /veh OR2T12 /// OR2T33 /// OR2T8 (11738714_s_at) / RFU VCAN (11748164_a_at) / Fold change /veh VCAN (11748164_a_at) / RFU JSRP1 (11732532_at) / Fold change /veh JSRP1 (11732532_at) / RFU KRTAP10-11 (11738290_x_at) / Fold change /veh KRTAP10-11 (11738290_x_at) / RFU MYO3A (11730013_a_at) / Fold change /veh MYO3A (11730013_a_at) / RFU EBF3 (11725865_a_at) / Fold change /veh EBF3 (11725865_a_at) / RFU CAMK2N1 (11719241_x_at) / Fold change /veh CAMK2N1 (11719241_x_at) / RFU C5orf56 (11738088_a_at) / Fold change /veh C5orf56 (11738088_a_at) / RFU OLFML3 (11715873_a_at) / Fold change /veh OLFML3 (11715873_a_at) / RFU LOC100653217 /// NTM (11731650_a_at) / Fold change /veh LOC100653217 /// NTM (11731650_a_at) / RFU MAPK11 (11762145_a_at) / Fold change /veh MAPK11 (11762145_a_at) / RFU FIZ1 (11724087_x_at) / Fold change /veh FIZ1 (11724087_x_at) / RFU OASL (11726364_x_at) / Fold change /veh OASL (11726364_x_at) / RFU SOX15 (11748057_x_at) / Fold change /veh SOX15 (11748057_x_at) / RFU CD79A (11719716_a_at) / Fold change /veh CD79A (11719716_a_at) / RFU HIST1H1D (11736915_at) / Fold change /veh HIST1H1D (11736915_at) / RFU CASKIN2 (11723855_a_at) / Fold change /veh CASKIN2 (11723855_a_at) / RFU LOC730098 (11760151_x_at) / Fold change /veh LOC730098 (11760151_x_at) / RFU OR4N2 (11742367_at) / Fold change /veh OR4N2 (11742367_at) / RFU PRRT2 (11749266_a_at) / Fold change /veh PRRT2 (11749266_a_at) / RFU SNX32 (11753110_a_at) / Fold change /veh SNX32 (11753110_a_at) / RFU CDHR5 (11726645_a_at) / Fold change /veh CDHR5 (11726645_a_at) / RFU RCAN1 (11760418_a_at) / Fold change /veh RCAN1 (11760418_a_at) / RFU FAM167A (11723789_a_at) / Fold change /veh FAM167A (11723789_a_at) / RFU FAM26E (11764081_at) / Fold change /veh FAM26E (11764081_at) / RFU ISYNA1 (11749810_s_at) / Fold change /veh ISYNA1 (11749810_s_at) / RFU ACY1 (11761880_at) / Fold change /veh ACY1 (11761880_at) / RFU 11764098_at / Fold change /veh 11764098_at / RFU SAMD14 (11745864_x_at) / Fold change /veh SAMD14 (11745864_x_at) / RFU NPB (11741838_a_at) / Fold change /veh NPB (11741838_a_at) / RFU TMPRSS6 (11731388_a_at) / Fold change /veh TMPRSS6 (11731388_a_at) / RFU KRTAP10-2 (11738614_at) / Fold change /veh KRTAP10-2 (11738614_at) / RFU ARHGAP8 /// PRR5-ARHGAP8 (11727945_x_at) / Fold change /veh ARHGAP8 /// PRR5-ARHGAP8 (11727945_x_at) / RFU KRTAP5-7 /// NADSYN1 (11734609_at) / Fold change /veh KRTAP5-7 /// NADSYN1 (11734609_at) / RFU RASL12 (11751679_a_at) / Fold change /veh RASL12 (11751679_a_at) / RFU CDKN2B (11736163_a_at) / Fold change /veh CDKN2B (11736163_a_at) / RFU PRF1 (11729649_at) / Fold change /veh PRF1 (11729649_at) / RFU, ZNF638 /// ZNF638-IT1 / Fold change vs veh, ZNF638 /// ZNF638-IT1 / RFU, PANK3 / Fold change vs veh, PANK3 / RFU, SH3YL1 / Fold change vs veh, SH3YL1 / RFU, ZEB2 / Fold change vs veh, ZEB2 / RFU, NRIP1 / Fold change vs veh, NRIP1 / RFU, PTTG1IP / Fold change vs veh, PTTG1IP / RFU, CAPN2 / Fold change vs veh, CAPN2 / RFU, MED14 / Fold change vs veh, MED14 / RFU, SNORA58 / Fold change vs veh, SNORA58 / RFU, C1orf63 / Fold change vs veh, C1orf63 / RFU, LRRFIP1 / Fold change vs veh, LRRFIP1 / RFU, NDUFAF7 / Fold change vs veh, NDUFAF7 / RFU, SLC12A2 / Fold change vs veh, SLC12A2 / RFU, IBTK / Fold change vs veh, IBTK / RFU, ESF1 / Fold change vs veh, ESF1 / Fold change vs veh, TMEM50B / RFU, TAOK1 / Fold change vs veh, TAOK1 / RFU, ACBD3 / Fold change vs veh, ACBD3 / RFU, TMA16 / Fold change vs veh, TMA16 / RFU, RWDD3 / Fold change vs veh, RWDD3 / RFU, BCAT1 / Fold change vs veh, BCAT1 / RFU, EDEM3 / Fold change vs veh, EDEM3 / RFU, TMEM33 / Fold change vs veh, TMEM33 / RFU, WDR75 / Fold change vs veh, WDR75 / RFU, AHCTF1 / Fold change vs veh, AHCTF1 / RFU, TFRC / Fold change vs veh, TFRC / RFU, ZDHHC17 / Fold change vs veh, ZDHHC17 / RFU, NOM1 / Fold change vs veh, NOM1 / RFU, ARL8B / Fold change vs veh, ARL8B / RFU, ZBTB11 / Fold change vs veh, ZBTB11 / RFU, TAMM41 / Fold change vs veh, TAMM41 / RFU, KIAA1704 /// LOC100996395 / Fold change vs veh, KIAA1704 /// LOC100996395 / RFU, ING1 / Fold change vs veh, ING1 / RFU, TRMT61B / Fold change vs veh, TRMT61B / RFU, FUBP3 / Fold change vs veh, FUBP3 / RFU, TP53 / Fold change vs veh, TP53 / RFU, TNKS2 / Fold change vs veh, TNKS2 / RFU, ZFP14 / Fold change vs veh, ZFP14 / RFU, ACTR2 / Fold change vs veh, ACTR2 / RFU, PPP3R1 / Fold change vs veh, PPP3R1 / RFU, PIK3R1 / Fold change vs veh, PIK3R1 / RFU, HNRNPA1 / Fold change vs veh, HNRNPA1 / RFU, RNF170 / Fold change vs veh, RNF170 / RFU, ZNF28 / Fold change vs veh, ZNF28 / RFU, RNGTT / Fold change vs veh, RNGTT / RFU, OGT / Fold change vs veh, OGT / RFU, BRD1 / Fold change vs veh, BRD1 / RFU, MARS / Fold change vs veh, MARS / RFU, ZNF655 / Fold change vs veh, ZNF655 / RFU, FAHD1 / Fold change vs veh, FAHD1 / RFU, BDP1 / Fold change vs veh, BDP1 / RFU, LRRCC1 / Fold change vs veh, LRRCC1 / RFU, ARID1A / Fold change vs veh, ARID1A / RFU, ZNF146 / Fold change vs veh, ZNF146 / RFU, ZNF330 / Fold change vs veh, ZNF330 / RFU, GPN3 / Fold change vs veh, GPN3 / RFU, C9orf123 / Fold change vs veh, C9orf123 / RFU, N4BP2L2 / Fold change vs veh, N4BP2L2 / RFU, ARFIP1 / Fold change vs veh, ARFIP1 / RFU, FAM179B / Fold change vs veh, FAM179B / RFU, BCL10 / Fold change vs veh, BCL10 / RFU, UHRF1BP1L / Fold change vs veh, UHRF1BP1L / RFU, BET1 / Fold change vs veh, BET1 / RFU, CNOT2 / Fold change vs veh, CNOT2 / RFU, ZNF268 / Fold change vs veh, ZNF268 / Fold change vs veh, ZNF507 / RFU, DGCR2 / Fold change vs veh, DGCR2 / RFU, WDSUB1 / Fold change vs veh, WDSUB1 / Fold change vs veh, HSP90B1 /// MIR3652 / RFU, ADSS / Fold change vs veh, ADSS / RFU, GK / Fold change vs veh, GK / RFU, ZNF148 / Fold change vs veh, ZNF148 / RFU, TAF9 / Fold change vs veh, TAF9 / RFU, SLC1A5 / Fold change vs veh, SLC1A5 / RFU, SLMO2 / Fold change vs veh, SLMO2 / RFU, ABCC4 / Fold change vs veh, ABCC4 / RFU, LOC101060439 /// RAP1B / Fold change vs veh, LOC101060439 /// RAP1B / RFU, RFX7 / Fold change vs veh, RFX7 / RFU, GTPBP10 / Fold change vs veh, GTPBP10 / RFU, CNEP1R1 / Fold change vs veh, CNEP1R1 / RFU, BIVM-ERCC5 /// ERCC5 / Fold change vs veh, BIVM-ERCC5 /// ERCC5 / RFU, ILF3 / Fold change vs veh, ILF3 / RFU 11762660_at / Fold change /veh 11762660_at / RFU VCAN (11757783_s_at) / Fold change /veh VCAN (11757783_s_at) / RFU DDX43 (11728927_at) / Fold change /veh DDX43 (11728927_at) / RFU KRT8 (11758188_x_at) / Fold change /veh KRT8 (11758188_x_at) / RFU NKD1 (11759106_at) / Fold change /veh NKD1 (11759106_at) / RFU SRD5A1 (11742802_a_at) / Fold change /veh SRD5A1 (11742802_a_at) / RFU TPSAB1 /// TPSB2 (11721975_s_at) / Fold change /veh TPSAB1 /// TPSB2 (11721975_s_at) / RFU GSTM3 (11746129_a_at) / Fold change /veh GSTM3 (11746129_a_at) / RFU IL23R (11737362_x_at) / Fold change /veh IL23R (11737362_x_at) / RFU TMEM51 (11727254_a_at) / Fold change /veh TMEM51 (11727254_a_at) / RFU PIWIL2 (11732686_x_at) / Fold change /veh PIWIL2 (11732686_x_at) / RFU ORM1 (11744905_x_at) / Fold change /veh ORM1 (11744905_x_at) / RFU CCDC152 (11743942_at) / Fold change /veh CCDC152 (11743942_at) / RFU ECM1 (11717891_a_at) / Fold change /veh ECM1 (11717891_a_at) / RFU IL23R (11748794_a_at) / Fold change /veh IL23R (11748794_a_at) / RFU TNFAIP8L3 (11732012_x_at) / Fold change /veh TNFAIP8L3 (11732012_x_at) / RFU MBOAT4 (11741988_at) / Fold change /veh MBOAT4 (11741988_at) / RFU 11764193_at / Fold change /veh 11764193_at / RFU TMEM53 (11763286_at) / Fold change /veh TMEM53 (11763286_at) / RFU MAGEB2 (11727129_at) / Fold change /veh MAGEB2 (11727129_at) / RFU TMEM200A (11744735_a_at) / Fold change /veh TMEM200A (11744735_a_at) / RFU CCDC152 (11751479_a_at) / Fold change /veh CCDC152 (11751479_a_at) / RFU FAM211A (11726209_a_at) / Fold change /veh FAM211A (11726209_a_at) / RFU RGS16 (11746705_a_at) / Fold change /veh RGS16 (11746705_a_at) / RFU VCAN (11755009_s_at) / Fold change /veh VCAN (11755009_s_at) / RFU RHOB (11743442_s_at) / Fold change /veh RHOB (11743442_s_at) / RFU RGS16 (11720943_a_at) / Fold change /veh RGS16 (11720943_a_at) / RFU RGS16 (11720944_at) / Fold change /veh RGS16 (11720944_at) / RFU, VPS4B / Fold change vs veh, VPS4B / RFU, CREB1 / Fold change vs veh, CREB1 / RFU, DNAJC13 / Fold change vs veh, DNAJC13 / RFU, GNAQ / Fold change vs veh, GNAQ / RFU, CDK5R1 / Fold change vs veh, CDK5R1 / RFU, ZRANB3 / Fold change vs veh, ZRANB3 / RFU, CUL4A / Fold change vs veh, CUL4A / RFU, CCNY / Fold change vs veh, CCNY / RFU, UFL1 / Fold change vs veh, UFL1 / RFU, COG3 / Fold change vs veh, COG3 / RFU, DIAPH2 / Fold change vs veh, DIAPH2 / RFU, SKA2 / Fold change vs veh, SKA2 / RFU, AFF3 / Fold change vs veh, AFF3 / RFU, LMF1 / Fold change vs veh, LMF1 / RFU, IPO11 / Fold change vs veh, IPO11 / RFU, DFFB / Fold change vs veh, DFFB / RFU, FOXP1 / Fold change vs veh, FOXP1 / RFU, CARD8 / Fold change vs veh, CARD8 / RFU, STRN3 / Fold change vs veh, STRN3 / RFU, ADK / Fold change vs veh, ADK / RFU, RASSF2 / Fold change vs veh, RASSF2 / RFU, WIPF1 / Fold change vs veh, WIPF1 / RFU, LARP1B / Fold change vs veh, LARP1B / RFU, RASA1 / Fold change vs veh, RASA1 / RFU, RB1 / Fold change vs veh, RB1 / RFU, PPFIA1 / Fold change vs veh, PPFIA1 / RFU, MAT2A / Fold change vs veh, MAT2A / RFU, CCT5 / Fold change vs veh, CCT5 / RFU, WDR92 / Fold change vs veh, WDR92 / RFU, CUX1 / Fold change vs veh, CUX1 / RFU, TTC7A / Fold change vs veh, TTC7A / RFU, TMEM135 / Fold change vs veh, TMEM135 / RFU, DEPTOR / Fold change vs veh, DEPTOR / RFU, CPM / Fold change vs veh, CPM / RFU, DNAJB6 / Fold change vs veh, DNAJB6 / RFU, CACNA2D3 / Fold change vs veh, CACNA2D3 / RFU, DTX4 / Fold change vs veh, DTX4 / RFU, TFCP2 / Fold change vs veh, TFCP2 / RFU, GMCL1 /// GMCL1P1 / Fold change vs veh, GMCL1 /// GMCL1P1 / RFU, AEBP2 / Fold change vs veh, AEBP2 / RFU, SNHG1 /// SNORD22 /// SNORD25 /// SNORD26 /// SNORD27 /// SNORD28 /// SNORD29 /// SNORD31 / Fold change vs veh, SNHG1 /// SNORD22 /// SNORD25 /// SNORD26 /// SNORD27 /// SNORD28 /// SNORD29 /// SNORD31 / Fold change (Aza/veh), C12orf56 (ProbeSet 11735607_a_at) / Fold change (ACY-1035/veh), C12orf56 (ProbeSet 11735607_a_at) / Fold change (Aza/veh), FGFR1OP (ProbeSet 11751329_s_at) / Fold change (ACY-1035/veh), FGFR1OP (ProbeSet 11751329_s_at) / Fold change (Aza/veh), VPS36 (ProbeSet 11739960_a_at) / Fold change (ACY-1035/veh), VPS36 (ProbeSet 11739960_a_at) / RFU SYPL1 (11715823_x_at) / Fold change /veh SYPL1 (11715823_x_at) / RFU IGFBP7 (11715501_s_at) / Fold change /veh IGFBP7 (11715501_s_at) / RFU REEP3 (11722064_at) / Fold change /veh REEP3 (11722064_at) / RFU IGLL1 (11728026_x_at) / Fold change /veh IGLL1 (11728026_x_at): dose or concentration left out as unconfirmed
Conditions: ProbeSet 11728676_at; LIST B

SMILES: Nc1ccc(-c2cccs2)cc1NC(=O)c1ccc2c(c1)cc(C1CC1)n2CCN1CCOCC1 [ACY-1035]
- RFU, MED14: 202.11 RFU
